Values quoted from earlier work in patent US20060013877A1 (Nanohybrid Co., Ltd., priority 2002, published 2006).

For CCC(C)n1ncn(-c2ccc(N3CCN(c4ccc(OC[C@H]5CO[C@](Cn6cncn6)(c6ccc(Cl)cc6Cl)O5)cc4)CC3)cc2)c1=O (mixture of isomers) [itraconazole, (±)-cis-4-[4-[4-[4-[[2-(2,4-dichlorophenyl)-2-(1H-1,2,4-triazole-1-ylmethyl)-1,3-dioxoran-4-yl]methoxy]phenyl]-1-piperazinyl]phenyl]-2,4-dihydro-2-(1-methylpropyl)-3H-1,2,4-triazole-3-one], the water solubility is listed as “about 1 mg/ml”.
